pIC50: −log10 of the molar value. Read-outs that look alike come from different tables or passages of the source.
Test system: HIV-1 (H9/IIIB strain) virus
Experiment: microbe, parasite or virus in culture
Assay type: cell-based
Conditions: MT4-GFP cells infected with HIV-1 H9/IIIB, inhibition of reproductive ratio
[1] = 100% normal human serum (NHS) condition, read-out: Viking, IC50 (100% NHS)
[2] = Human immunodeficiency virus 1, IIIB, 0% NHS condition (RPMI 1640), read-out: Viking, IC50 (0% NHS)
[3] = 0% NHS condition (RPMI 1640), read-out: Viking, IC50 (0% NHS)
[4] = 100% normal human serum (NHS) condition, 2,2,2-trifluoroacetate, read-out: Viking, IC50 (100% NHS)

Compound | pIC50 [1] | pIC50 [2] | pIC50 [3] | pIC50 [4] | pIC50 (0% NHS condition (RPMI 1640), 2,2,2-trifluoroacetate, read-out: Viking, IC50 (0% NHS))
O=C(NCc1c(F)cc(F)cc1F)c1cn2c(c(O)c1=O)C(=O)N1CCCCCN2C1 (single isomer, unassigned) [Example 1A, 9-hydroxy-8,10-dioxo-N-(2,4,6-trifluorobenzyl)-3,4,5,6,8,10-hexahydro-2H-1,7-methanopyrido[1,2-b][1,2,5]triazecine-11-carboxamide] | 5.59 | 8.70 |  |  | 
O=C(NCc1c(F)cc(F)cc1F)c1cn2c(c(O)c1=O)C(=O)N1CCCCCN2C1 (single isomer, unassigned) [Example 1B, 9-hydroxy-8,10-dioxo-N-(2,4,6-trifluorobenzyl)-3,4,5,6,8,10-hexahydro-2H-1,7-methanopyrido[1,2-b][1,2,5]triazecine-11-carboxamide] | 7.02 |  | 9.00 |  | 
O=C(NCc1ccc(F)cc1F)c1cn2c(c(O)c1=O)C(=O)N1CCCCCCN2C1 (single isomer, unassigned) [Example 3A, N-(2,4-difluorobenzyl)-10-hydroxy-9,11-dioxo-2,3,4,5,6,7,9,11-octahydro-1,8-methanopyrido[1,2-b][1,2,5]triazacycloundecine-12-carboxamide] | 6.23 | 8.58 |  |  | 
O=C(NCc1ccc(F)cc1F)c1cn2c(c(O)c1=O)C(=O)N1CCCCCCN2C1 (single isomer, unassigned) [Example 3B, N-(2,4-difluorobenzyl)-10-hydroxy-9,11-dioxo-2,3,4,5,6,7,9,11-octahydro-1,8-methanopyrido[1,2-b][1,2,5]triazacycloundecine-12-carboxamide] | 5.72 |  | 8.28 |  | 
O=C(NCc1ccc(F)cc1F)c1cn2c(c(O)c1=O)C(=O)N1CCOCCN2C1 (single isomer, unassigned) [Example 4A, N-(2,4-difluorobenzyl)-9-hydroxy-8,10-dioxo-2,3,5,6,8,10-hexahydro-1,7-methanopyrido[1,2-e][1,4,5,8]oxatriazecine-11-carboxamide] | 5.02 |  | 8.46 |  | 
O=C(NCc1ccc(F)cc1F)c1cn2c(c(O)c1=O)C(=O)N1CCOCCN2C1 (single isomer, unassigned) [Example 4B, N-(2,4-difluorobenzyl)-9-hydroxy-8,10-dioxo-2,3,5,6,8,10-hexahydro-1,7-methanopyrido[1,2-e][1,4,5,8]oxatriazecine-11-carboxamide] | 6.71 | 8.75 |  |  | 
COC1CCN2CN(CC1)n1cc(C(=O)NCc3c(F)cc(F)cc3F)c(=O)c(O)c1C2=O (single isomer, unassigned) [Example 5A, 9-hydroxy-4-methoxy-8,10-dioxo-N-(2,4,6-trifluorobenzyl)-3,4,5,6,8,10-hexahydro-2H-1,7-methanopyrido[1,2-b][1,2,5]triazecine-11-carboxamide] | 7.17 |  | 8.49 |  | 
COC1CCN2CN(CC1)n1cc(C(=O)NCc3c(F)cc(F)cc3F)c(=O)c(O)c1C2=O (single isomer, unassigned) [Example 5B, 9-hydroxy-4-methoxy-8,10-dioxo-N-(2,4,6-trifluorobenzyl)-3,4,5,6,8,10-hexahydro-2H-1,7-methanopyrido[1,2-b][1,2,5]triazecine-11-carboxamide] | 6.91 |  | 8.71 |  | 
COC1CCN2CN(CC1)n1cc(C(=O)NCc3c(F)cc(F)cc3F)c(=O)c(O)c1C2=O (single isomer, unassigned) [Example 5C, 9-hydroxy-4-methoxy-8,10-dioxo-N-(2,4,6-trifluorobenzyl)-3,4,5,6,8,10-hexahydro-2H-1,7-methanopyrido[1,2-b][1,2,5]triazecine-11-carboxamide] | 7.20 |  | 8.77 |  | 
COC1CCN2CN(CC1)n1cc(C(=O)NCc3c(F)cc(F)cc3F)c(=O)c(O)c1C2=O (single isomer, unassigned) [Example 5D, 9-hydroxy-4-methoxy-8,10-dioxo-N-(2,4,6-trifluorobenzyl)-3,4,5,6,8,10-hexahydro-2H-1,7-methanopyrido[1,2-b][1,2,5]triazecine-11-carboxamide] | 6.26 |  | 8.27 |  | 
CN1CCN2CN(CC1)n1cc(C(=O)NCc3c(F)cc(F)cc3F)c(=O)c(O)c1C2=O (single isomer, unassigned) [Example 6A, 9-hydroxy-4-methyl-8,10-dioxo-N-(2,4,6-trifluorobenzyl)-3,4,5,6,8,10-hexahydro-2H-1,7-methanopyrido[1,2-b][1,2,5,8]tetrazecine-11-carboxamide 2,2,2-trifluoroacetate] |  | 8.33 |  | 6.77 | 
CN1CCN2CN(CC1)n1cc(C(=O)NCc3c(F)cc(F)cc3F)c(=O)c(O)c1C2=O (single isomer, unassigned) [Example 6B, 9-hydroxy-4-methyl-8,10-dioxo-N-(2,4,6-trifluorobenzyl)-3,4,5,6,8,10-hexahydro-2H-1,7-methanopyrido[1,2-b][1,2,5,8]tetrazecine-11-carboxamide 2,2,2-trifluoroacetate] |  |  |  | 7.10 | 8.62
O=C(NCc1c(F)cc(F)cc1F)c1cn2c(c(O)c1=O)C(=O)N1CCC(F)(F)CCN2C1 (single isomer, unassigned) [Example 7A, 4,4-difluoro-9-hydroxy-8,10-dioxo-N-(2,4,6-trifluorobenzyl)-3,4,5,6,8,10-hexahydro-2H-1,7-methanopyrido[1,2-b][1,2,5]triazecine-11-carboxamide] | 5.35 |  | 8.21 |  | 
O=C(NCc1c(F)cc(F)cc1F)c1cn2c(c(O)c1=O)C(=O)N1CCC(F)(F)CCN2C1 (single isomer, unassigned) [Example 7B, 4,4-difluoro-9-hydroxy-8,10-dioxo-N-(2,4,6-trifluorobenzyl)-3,4,5,6,8,10-hexahydro-2H-1,7-methanopyrido[1,2-b][1,2,5]triazecine-11-carboxamide] | 7.13 |  | 8.67 |  | 
O=C(NCc1c(F)cc(F)cc1F)c1cn2c(c(O)c1=O)C(=O)N1CCC(O)CCN2C1 (single isomer, unassigned) [Example 17A] | 5.90 |  | 7.18 |  | 
O=C(NCc1c(F)cc(F)cc1F)c1cn2c(c(O)c1=O)C(=O)N1CCC(O)CCN2C1 (single isomer, unassigned) [Example 17B] | 6.56 |  | 8.12 |  | 
O=C(NCc1c(F)cc(F)cc1F)c1cn2c(c(O)c1=O)C(=O)N1CCC(O)CCN2C1 (single isomer, unassigned) [Example 17C] | 5.23 |  | 6.73 |  | 

Compound | pIC50 [1] | pIC50 [2] | pIC50 [3] | pIC50 [4] | pIC50 (0% NHS condition (RPMI 1640), 2,2,2-trifluoroacetate, read-out: Viking, IC50 (0% NHS))
O=C(NCc1c(F)cc(F)cc1F)c1cn2c(c(O)c1=O)C(=O)N1CCC(O)CCN2C1 (single isomer, unassigned) [Example 17D] | 6.14 |  | 7.59 |  | 
COC1CCN2CN(CC1)n1cc(C(=O)NCc3cccc(Cl)c3F)c(=O)c(O)c1C2=O (single isomer, unassigned) [Example 18A] | 6.55 |  | 8.51 |  | 
COC1CCN2CN(CC1)n1cc(C(=O)NCc3cccc(Cl)c3F)c(=O)c(O)c1C2=O (single isomer, unassigned) [Example 18B] | 6.36 |  | 8.60 |  | 
COC1CCN2CN(CC1)n1cc(C(=O)NCc3cccc(Cl)c3F)c(=O)c(O)c1C2=O (single isomer, unassigned) [Example 18C] | 5.73 |  | 8.49 |  | 
COC1CCN2CN(CC1)n1cc(C(=O)NCc3cccc(Cl)c3F)c(=O)c(O)c1C2=O (single isomer, unassigned) [Example 18D] | 6.64 |  | 8.82 |  | 
COC1CCN2CN(CC1)n1cc(C(=O)NCc3c(F)ccc(Cl)c3F)c(=O)c(O)c1C2=O (single isomer, unassigned) [Example 19A] | 6.94 |  | 8.74 |  | 
COC1CCN2CN(CC1)n1cc(C(=O)NCc3c(F)ccc(Cl)c3F)c(=O)c(O)c1C2=O (single isomer, unassigned) [Example 19B] | 5.73 |  | 8.28 |  | 
COC1CCN2CN(CC1)n1cc(C(=O)NCc3c(F)ccc(Cl)c3F)c(=O)c(O)c1C2=O (single isomer, unassigned) [Example 19C] | 6.61 |  | 8.46 |  | 
COC1CCN2CN(CC1)n1cc(C(=O)NCc3c(F)ccc(Cl)c3F)c(=O)c(O)c1C2=O (single isomer, unassigned) [Example 19D] | 6.52 |  | 8.82 |  | 
COC1CCN2CN(CC1)n1cc(C(=O)NCc3ccc(F)cc3F)c(=O)c(O)c1C2=O (single isomer, unassigned) [Example 20A] | 7.06 |  | 8.48 |  | 
COC1CCN2CN(CC1)n1cc(C(=O)NCc3ccc(F)cc3F)c(=O)c(O)c1C2=O (single isomer, unassigned) [Example 20B] | 6.43 |  | 8.55 |  | 
COC1CCN2CN(CC1)n1cc(C(=O)NCc3ccc(F)cc3F)c(=O)c(O)c1C2=O (single isomer, unassigned) [Example 20C] | 6.22 |  | 8.12 |  | 
COC1CCN2CN(CC1)n1cc(C(=O)NCc3ccc(F)cc3F)c(=O)c(O)c1C2=O (single isomer, unassigned) [Example 20D] | 6.67 |  | 8.68 |  | 
COC1CCN2CN(CC1)n1cc(C(=O)NCc3ccc(F)c(Cl)c3F)c(=O)c(O)c1C2=O (single isomer, unassigned) [Example 21A] | 5.60 |  | 8.60 |  | 
COC1CCN2CN(CC1)n1cc(C(=O)NCc3ccc(F)c(Cl)c3F)c(=O)c(O)c1C2=O (single isomer, unassigned) [Example 21B] | 6.68 |  | 9.05 |  | 
COC1CCN2CN(CC1)n1cc(C(=O)NCc3ccc(F)c(Cl)c3F)c(=O)c(O)c1C2=O (single isomer, unassigned) [Example 21C] | 6.51 |  | 8.77 |  | 
